Assay results: patent US10253076B2, “Peptides and combination of peptides for use in immunotherapy against ovarian cancer and other cancers” (immatics biotechnologies GmbH, priority 2015, dated 2019)

Key:
[1] = tested on: CD8+ T cells; assay: In vitro immunogenicity: T-cell priming with aAPCs loaded with peptide/MHC and anti-CD28, pMHC multimer readout; format: cell-based, human; details: for Wells positive [%]: HLA-A*02 restricted peptides; for wells: percentage of positive wells
Protocol: In an aspect, the peptides are pre-screened for immunogenicity before being included in the warehouse. By way of example, and not limitation, the immunogenicity of the peptides included in the warehouse is determined by a method comprising in vitro T-cell priming through repeated stimulations of CD8+ T cells from healthy donors with artificial antigen presenting cells loaded with peptide/MHC complexes and anti-CD28 antibody.
In order to obtain information regarding the immunogenicity of the TUMAPs of the present invention, the inventors performed investigations using an in vitro T-cell priming assay based on repeated stimulations of CD8+ T cells with artificial antigen presenting cells (aAPCs) loaded with peptide/MHC complexes and anti-CD28 antibody.
In order to perform in vitro stimulations by artificial antigen presenting cells loaded with peptide-MHC complex (pMHC) and anti-CD28 antibody, the inventors first isolated CD8+ T cells from fresh HLA-A*02 leukapheresis products via positive selection using CD8 microbeads (Miltenyi Biotec, Bergisch-Gladbach, Germany) of healthy donors obtained from the University clinics Mannheim, Germany, after informed consent.
PBMCs and isolated CD8+ lymphocytes were incubated in T-cell medium (TCM) until use consisting of RPMI-Glutamax (Invitrogen, Karlsruhe, Germany) supplemented with 10% heat inactivated human AB serum (PAN-Biotech, Aidenbach, Germany), 100 U/ml Penicillin/100 μg/ml Streptomycin (Cambrex, Cologne, Germany), 1 mM sodium pyruvate (CC Pro, Oberdorla, Germany), 20 μg/ml Gentamycin (Cambrex). 2.5 ng/ml IL-7 (PromoCell, Heidelberg, Germany) and 10 U/ml IL-2 (Novartis Pharma, Nürnberg, Germany) were also added to the TCM at this step.
Generation of pMHC/anti-CD28 coated beads, T-cell stimulations and readout was performed in a highly defined in vitro system using four different pMHC molecules per stimulation condition and 8 different pMHC molecules per readout condition.
The purified co-stimulatory mouse IgG2a anti human CD28 Ab 9.3 (Jung et al., 1987) was chemically biotinylated using Sulfo-N-hydroxysuccinimidobiotin as recommended by the manufacturer (Perbio, Bonn, Germany). Beads used were 5.6 μm diameter streptavidin coated polystyrene particles (Bangs Laboratories, Illinois, USA).
pMHC used for positive and negative control stimulations were A*0201/MLA-001 (peptide […] (SEQ ID NO. 664) from modified Melan-A/MART-1) and A*0201/DDX5-001 ([…] from DDX5, SEQ ID NO. 665), respectively.
800.000 beads/200 μl were coated in 96-well plates in the presence of 4×12.5 ng different biotin-pMHC, washed and 600 ng biotin anti-CD28 were added subsequently in a volume of 200 μl. Stimulations were initiated in 96-well plates by co-incubating […] CD8+ T cells with 2×10^5 washed coated beads in 200 μl TCM supplemented with 5 ng/ml IL-12 (PromoCell) for 3 days at 37° C. Half of the medium was then exchanged by fresh TCM supplemented with 80 U/ml IL-2 and incubating was continued for 4 days at 37° C. This stimulation cycle was performed for a total of three times. For the pMHC multimer readout using 8 different pMHC molecules per condition, a two-dimensional combinatorial coding approach was used as previously described (Andersen et al., 2012) with minor modifications encompassing coupling to 5 different fluorochromes. Finally, multimeric analyses were performed by staining the cells with Live/dead near IR dye (Invitrogen, Karlsruhe, Germany), CD8-FITC antibody clone SK1 (BD, Heidelberg, Germany) and fluorescent pMHC multimers. For analysis, a BD LSRII SORP cytometer equipped with appropriate lasers and filters was used. Peptide specific cells were calculated as percentage of total CD8+ cells. Evaluation of multimeric analysis was done using the FlowJo software (Tree Star, Oregon, USA). In vitro priming of specific multimer+ CD8+ lymphocytes was detected by comparing to negative control stimulations. […]

[2] = target: HLA-A*02:01 (Homo sapiens, UniProt P04439, D140Y/D185E/D98H/E176V/E277Q/G131W/G231S/I119V/I121R/I166T/I218V/L300P/L318F/N151K/N90K/P208A/P217A/Q86G/Q94H/R138H/R169H/T345S); assay: MHC binding assay (UV-ligand exchange, beta2m ELISA, peptide exchange yield); details: binding of HLA-class I restricted peptides to HLA-A*02:01, ranged by peptide exchange yield (UV-ligand exchange, β2m ELISA)
In short: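 Readout is a β2m ELISA: stabilized complexes captured on streptavidin, detected with HRP-conjugated anti-β2m and TMB at 450 nm, reporting peptide exchange yield. Complexes come from UV-light cleavage of a conditional ligand in HLA-A*02:01 and replacement by the candidate peptide, samples diluted 100-fold.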

| Peptide exchange [2] | Substance | Wells positive [%] [1] | wells ([1]; HLA class I peptides) | donors ([1]; HLA class I peptides, percentage of positive donors) |
| --- | --- | --- | --- | --- |
| ″++++″ (≥75% = ++++) | 8 (FTLGNVVGMYL; listed as Homo sapiens) [compound 8] | ″+″ (<20% = +) | – | – |
| ″+++″ (≥50% = +++) | 11 (KIFEMLEGV; listed as Homo sapiens) [compound 11] | ″+″ (<20% = +) | – | – |
| ″+++″ (≥50% = +++) | 48 (ALAELYEDEV; listed as Homo sapiens) [compound 48] | ″+″ (<20% = +) | – | – |
| ″+++″ (≥50% = +++) | 79 (SLFIGEKAVLL; listed as Homo sapiens) [compound 79] | ″+″ (<20% = +) | – | – |
| ″+++″ (≥50% = +++) | 118 (KLIDNNINV; listed as Homo sapiens) [compound 118] | ″+″ (<20% = +) | – | – |
| ″++++″ (≥75% = ++++) | 143 (LLLDITPEI; listed as Homo sapiens) [compound 143] | ″+″ (<20% = +) | – | – |
| ″+++″ (≥50% = +++) | 150 (RLWEEGEELEL; listed as Homo sapiens) [compound 150] | ″+″ (<20% = +) | – | – |
| ″+++″ (≥50% = +++) | 166 (YLNHLEPPV; listed as Homo sapiens) [compound 166] | ″++++″ (> = 70% = ++++) | – | – |
| ″+++″ (≥50% = +++) | 199 (ALQDVPLSSV; listed as Homo sapiens) [compound 199] | ″+″ (<20% = +) | – | – |
| ″+++″ (≥50% = +++) | 247 (VLLPNDLLEKV; listed as Homo sapiens) [compound 247] | ″+″ (<20% = +) | – | – |
| ″++″ (≥20% = ++) | 319 (SLEPQIQPV; listed as Homo sapiens) [compound 319] | ″+″ (<20% = +) | – | – |
| ″+++″ (≥50% = +++) | 384 (ILFANPNIFV; listed as Homo sapiens) [compound 384] | ″+″ (<20% = +) | – | – |
| ″+++″ (≥50% = +++) | 443 (GLWEIENNPTV; listed as Homo sapiens) [compound 443] | ″+″ (<20% = +) | – | – |
| ″++++″ (≥75% = ++++) | 460 (AMLEKNYKL; listed as Homo sapiens) [compound 460] | ″+″ (<20% = +) | – | – |
| ″+++″ (≥50% = +++) | 489 (KMWEELPEVV; listed as Homo sapiens) [compound 489] | ″+″ (<20% = +) | – | – |
| ″++″ (≥20% = ++) | 511 (FLDPYCSASV; listed as Homo sapiens) [compound 511] | ″+″ (<20% = +) | – | – |

The next lines start with the substance.

| Substance | Peptide exchange [2] | Wells positive [%] [1] | wells ([1]; HLA class I peptides) | donors ([1]; HLA class I peptides, percentage of positive donors) |
| --- | --- | --- | --- | --- |
| 2 (SLLEADPFL; listed as Homo sapiens) [compound 2] | ″+++″ (≥50% = +++) | ″+″ (<20% = +) | – | – |
| 3 (SLASKLTTL; listed as Homo sapiens) [compound 3] | ″++++″ (≥75% = ++++) | ″+″ (<20% = +) | – | – |
| 36 (YVLEDLEVTV; listed as Homo sapiens) [compound 36] | ″++″ (≥20% = ++) | ″+″ (<20% = +) | – | – |
| 38 (FLLEDDIHVS; listed as Homo sapiens) [compound 38] | ″+++″ (≥50% = +++) | ″+″ (<20% = +) | – | – |
| 56 (KLYEGIPVLL; listed as Homo sapiens) [compound 56] | ″++++″ (≥75% = ++++) | ″+″ (<20% = +) | – | – |
| 60 (SLTIDGIYYV; listed as Homo sapiens) [compound 60] | ″++++″ (≥75% = ++++) | ″++++″ (> = 70% = ++++) | – | – |
| 113 (GLLPTPLFGV; listed as Homo sapiens) [compound 113] | ″+++″ (≥50% = +++) | ″+″ (<20% = +) | – | – |
| 141 (YLDFSNNRL; listed as Homo sapiens) [compound 141] | ″++″ (≥20% = ++) | ″+″ (<20% = +) | – | – |
| 283 (ALYIGDGYVIHLA; listed as Homo sapiens) [compound 283] | ″+++″ (≥50% = +++) | – | + (<20% = +) | – |
| 499 (KIFDIDEAEEGV; listed as Homo sapiens) [compound 499] | ″++″ (≥20% = ++) | ″+″ (<20% = +) | – | – |
| 603 (FLIEPEHVNTV; listed as Homo sapiens) [compound 603] | ″++″ (≥20% = ++) | ″+″ (<20% = +) | – | – |
| 652 (TLWYRAPEV; listed as Homo sapiens) [compound 652] | – | – | – | ++++ (> = 70% = ++++) |
| 659 (ILFPDIIARA; listed as Homo sapiens) [compound 659] | – | – | + (<20% = +) | – |
| 662 (KIQEILTQV; listed as Homo sapiens) [compound 662] | – | – | + (<20% = +) | – |
| 663 (KIQEMQHFL; listed as Homo sapiens) [compound 663] | – | – | + (<20% = +) | – |
